Drawing on PMC12443555, “Structural modifications to pregnane neurosteroids alter inhibition of LPS/Lipid A binding at the MD-2 activation site within the TLR4 signaling complex” (Frontiers in Immunology, 2025), this text covers Ki for three compounds.

This experiment addresses T1, Myeloid Differentiation factor 2 (MD-2) (Homo sapiens, UniProt Q9Y6Y9).
T1 construct: gene LY96; Recombinant human MD-2 (R&D Systems 1787-MD-050/CF)
T1 sequence (Q9Y6Y9 19-160): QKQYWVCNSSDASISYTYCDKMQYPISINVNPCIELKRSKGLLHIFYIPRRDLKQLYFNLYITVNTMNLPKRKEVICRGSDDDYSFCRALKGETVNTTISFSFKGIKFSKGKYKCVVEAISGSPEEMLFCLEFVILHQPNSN
Description: SPR competition against Lipid A ([…]) on immobilized MD-2. Format: binding. Particulars: read-out: Inhibition Constant (Ki).
As usually defined, the Ki is a dissociation constant, usually derived from enzyme kinetics or from competition with a known ligand. Turning to `CC(=O)[C@H]1CC[C@H]2[C@@H]3CCC4=CC(=O)CC[C@]4(C)[C@H]3CC[C@]12C` [progesterone], the inhibition constant Ki was found to be 49.4 nM.

Turning to `C[C@]12CC[C@@H](O)C[C@@H]1CC[C@@H]1[C@@H]2CC[C@]2(C)[C@@H](C(=O)CO)CC[C@@H]12` [3α,5α-THDOC], the Ki came to 57.6 nM.

As for `C[C@@]1(O)CC[C@H]2[C@H](CC[C@@H]3[C@@H]2CC[C@]2(C)[C@@H](C(=O)Cn4nccn4)CC[C@@H]32)C1` [SGE 516], the Ki worked out at 61.3 nM.
